Data on two compounds can be found in patent US8414885B2, “Methods and compositions for treating cancer” (priority 2009, dated 2013).

Structures are written as SMILES. Peptide text beside a SMILES is read from it. * marks the point of attachment. Cbz = O=C(OCc1ccccc1)*; CH2F = FC*

The subject of one experiment is calpain. Kind of experiment: Immunoblotting for calpain activation in infected melanoma cells. The format is cell-based, human. To be noted: delta-PK infected cultures; PD150606 100 μM; z-VAD-fmk 100 μM (Sigma-Aldrich) or 20 μM (Promega). An excerpt: (§1) FIG. 6. Calpain and caspase-7 and caspace-3 are activated in delta-PK infected melanoma cells. […] Data were quantified by densitometry and expressed as the ratio of the p76/p80 and p28 densitometric units +/−SD, respectively. Representatives of three replicate experiments are shown (***p<0.001 vs. Mock). B. The immunoblots in FIG. 6A were sequentially stripped and re-probed with antibodies to activated caspase-7, activated caspase-3, and actin. Data were quantified by densitometry and results are expressed as densitometric units +/−SD (**p<0.01, ***p<0.001 vs. Mock). C. […]
(§2) Cultured cells were lysed with radioimmunoprecipitation buffer [RIPA; 20 mM Tris-HCl (pH 7.4), […], 1% Nonidet P-40, 0.1% sodium dodecyl sulfate (SDS), 0.5% sodium deoxycholate] supplemented with protease and phosphatase inhibitor cocktails (Sigma-Aldrich), and sonicated twice for 30 seconds at 25% output power with a sonicator ultrasonic processor (Misonix, Inc., Farmingdale, N.Y.). […] Protein concentration was determined by the bicinchoninic assay (Pierce, Rockford, Ill.), and 100 μg protein samples were resolved by SDS-polyacrylamide gel elecrophoresis (SDS-PAGE) and transferred to polyvinylidene fluoride membranes followed by immunoblotting. […] Quantitation was by densitometric scanning with the Bio-Rad GS-700 imaging densitometer (Bio-Rad, Hercules, Calif.). […]
(In western blotting, separated proteins are transferred to a membrane and probed.)

The target in a further experiment is T1, caspase-7 (Homo sapiens, UniProt P55210).
T1 construct: endogenous in cells; host or cells: A2058 human melanoma cells infected with delta-PK
T1 sequence (P55210 24-198 limits assumed): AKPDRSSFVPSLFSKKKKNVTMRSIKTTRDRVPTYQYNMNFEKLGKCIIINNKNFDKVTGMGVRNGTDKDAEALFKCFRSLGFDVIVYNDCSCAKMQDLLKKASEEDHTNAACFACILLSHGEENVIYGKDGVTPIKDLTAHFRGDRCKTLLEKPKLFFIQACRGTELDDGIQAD
T1 sequence (P55210 207-303 limits assumed): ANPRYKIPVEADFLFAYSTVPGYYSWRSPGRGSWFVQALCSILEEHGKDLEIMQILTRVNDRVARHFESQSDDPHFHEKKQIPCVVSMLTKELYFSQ
Put plainly: Immunoblotting for caspase-7 activation in infected melanoma cells. To be noted: delta-PK infected cultures, 24 hrs p.i.; PD150606 100 μM; z-VAD-fmk 100 μM (Sigma-Aldrich) or 20 μM (Promega). It counts as cell-based.
From the text: as §1, §2

As for `O=C(O)/C(S)=C/c1ccc(I)cc1` [PD150606], in the experiment on calpain, the “effect of inhibitor on delta-PK induced calpain activation (p76/p80 ratio, p28)” value was “inhibited”. Moreover, the “effect of inhibitor on delta-PK induced caspase-7 activation / cleavage products” value on caspase-7 is listed as “increased”.

On to `COC(=O)C[C@H](NC(=O)[C@H](C)NC(=O)[C@@H](NC(=O)OCc1ccccc1)C(C)C)C(=O)CF` [z-VAD-fmk, benzyloxcarbonyl-Val-Ala-Asp-fluormethyl ketone] (Cbz-Val-Ala-Asp(OMe)-CH2F), for which, in the experiment on calpain, the “effect of inhibitor on delta-PK induced calpain activation (p76/p80 ratio, p28)” value is on record as “did not affect calpain activation”. In addition, the “effect of inhibitor on delta-PK induced caspase-7 activation / cleavage products” value at caspase-7 is given as “inhibited”.
